Measurements reported in PubChem BioAssay AID1626 (SRMLSC, 2009).

Tested on: M. tuberculosis H37Rv growth inhibition
Assay: M. tuberculosis H37Rv growth inhibitors, H37Rv strain (AID 1626)
Settings: for CC50: measured here: Vero cell cytotoxicity; for IC90: measured here: IC90 against H37Rv

Cn1c(O)c(C=Nc2ccccc2-c2ccccc2)c(=O)n(C)c1=O
CC50: > 40 µM

CCOc1ccc(NCc2ccccc2OCc2cccc(F)c2)cc1
IC50: 8.84 µM
IC90: > 100 µM

Cc1ccccc1OCC(=O)Nc1nc2ccccc2[nH]1
IC50: 4.82 µM
IC90: 16.2 µM

CCCCCOC(=O)NCCOC(=O)Nc1ccc(C(=O)OCC)cc1
IC50: < 0.195 µM
IC90: > 100 µM
CC50: > 40 µM

C=CCn1c(O)c(C(CC)=Nc2ccc3c(c2)CCC3)c(=O)[nH]c1=O
IC50: 17.8 µM
IC90: > 100 µM

O=S1(=O)C=C(Sc2nc3cc(Cl)ccc3o2)c2ccccc21
IC50: 2.9 µM
IC90: 3.18 µM
CC50: 16.1 µM

OC1(C#Cc2c(-c3ccsc3)oc3ccc(N4CCOCC4)cc23)CCCCC1
IC50: 15 µM
IC90: > 100 µM
CC50: > 40 µM

CC(C)(C)NC(=O)COC(=O)c1cc(Br)ccc1Cl
IC50: 11.9 µM
IC90: > 100 µM

O=C(c1cc2nc(-c3ccccc3)cc(-c3ccccc3)n2n1)N1CCN(C(=O)c2ccco2)CC1
IC50: 5.92 µM
IC90: 17.6 µM
CC50: > 40 µM

CCN1CCN(c2cc3c(cc2F)c(=O)c(C(=O)O)cn3C2CC2)CC1
IC50: < 0.391 µM
IC90: < 0.391 µM

Fc1ccc(Sc2nc(-c3ccccc3)nnc2C(F)(F)F)cc1
IC50: 90.4 µM
IC90: > 100 µM
CC50: > 40 µM

Nc1nc(Cl)cc(N2CCC(c3cc(-c4ccc(Cl)cc4)n[nH]3)CC2)n1
IC50: 77.9 µM
IC90: > 100 µM
CC50: 13.6 µM

O=C(Oc1ccc(Cl)cc1)c1ccc(N2CCOCC2)c([N+](=O)[O-])c1
IC50: 1.46 µM
IC90: 3.16 µM

CCN(CC)c1ccc(N=Cc2c(C)[nH]c3ccccc23)cc1
IC50: 22.1 µM
IC90: 35.1 µM
CC50: > 40 µM

Brc1c(CSc2nncc3ccccc23)nc2ccccn12
IC50: 5.58 µM
IC90: 16.3 µM
CC50: > 40 µM

Cc1ccc(Nc2nnc(SCC(=O)Nc3cccnc3Cl)s2)cc1C
IC50: 1.63 µM
IC90: 3.5 µM

COc1cc(OC)c2cc[nH]c2c1
IC90: > 100 µM

OC(CNCc1ccco1)Cn1c2ccc(Br)cc2c2cc(Br)ccc21 (stereo not drawn)
IC50: 2.76 µM
IC90: 3.11 µM
CC50: 17.2 µM

O=C(Nc1nccs1)c1cc2c(s1)CCCCC2
IC50: 5.64 µM
IC90: 25 µM
CC50: > 40 µM

c1ccc(OCCOCCN2CCN(C(c3ccccc3)c3ccccc3)CC2)cc1
IC50: 11.7 µM
IC90: 13.5 µM
CC50: > 40 µM

O=C1N(c2ccc3c(c2)OCCO3)C(c2ccccc2)C1(F)F (stereo not drawn)
IC50: 2.57 µM
IC90: 7.34 µM

Clc1ccc2c(c1)C1=C(C(c3ccncc3)O2)C(c2ccc(Br)cc2)n2ncnc2N1 (stereo not drawn)
IC50: 2.91 µM
IC90: 3.29 µM
CC50: > 40 µM

O=S1(=O)CCC(N=Cc2ccc(-c3ccc(Cl)cc3)o2)C1 (stereo not drawn)
IC50: 6.54 µM
IC90: > 100 µM

Fc1ccc(C(OCCN2CCN(CCCc3ccccc3)CC2)c2ccc(F)cc2)cc1
IC50: 4.22 µM
IC90: 5.59 µM
CC50: 19.2 µM

CCn1c(NC(=O)c2nn(C)cc2Br)nc2ccccc21
IC50: 6.62 µM
IC90: 13.2 µM
CC50: > 40 µM

CCCOC(=O)c1ccc(NC(=O)C2C3C=CC(O3)C2C(=O)O)cc1 (stereo not drawn)
IC50: 35.2 µM
IC90: > 100 µM

Cc1cc(C)n(-c2nc(NC(C)(C)C)nc(NC(C)(C)C)n2)n1
IC50: < 0.195 µM
IC90: 21 µM
CC50: > 40 µM

OC(c1cc(-c2ccc(Cl)cc2)nc2ccccc12)C1CCCCN1 (stereo not drawn)
IC50: 4.52 µM
IC90: 13.5 µM
CC50: 7.35 µM

COC(=O)c1ccc(Cn2cc(C(F)(F)F)cc([N+](=O)[O-])c2=O)cc1
IC50: 29.9 µM
IC90: > 100 µM

CCn1c(CNc2ccccc2Cl)nnc1SCC(=O)OC1CCCCC1
IC50: 1.63 µM
IC90: 3.2 µM

Cc1ccc(CNCC(O)(c2ccccc2)c2ccc(Cl)cc2)cc1 (stereo not drawn)
IC50: 8.17 µM
IC90: 10.9 µM
CC50: > 40 µM

CCOC(=O)c1cc(-c2csc(COc3ccccc3Cl)n2)on1
IC50: < 0.195 µM
IC90: 3.52 µM

CCN(CC)CCOC(=O)c1ccc(N/C=C(/C#N)c2nc(-c3cccc(OC)c3)cs2)cc1
IC50: 4.42 µM
IC90: 20.2 µM
CC50: 10.8 µM

CCCCOC(=O)Nc1ccc(C(=O)OCCC)cc1
IC50: 2.34 µM
IC90: > 100 µM

CCOC(=O)c1ccc(-n2c(CN(CC)CC)nc3ccc([N+](=O)[O-])cc3c2=O)cc1
IC50: 54.1 µM
IC90: > 100 µM

O=C(CSc1ncn[nH]1)Nc1ccc(Br)cc1F
IC50: 29.5 µM
IC90: > 100 µM
CC50: > 40 µM

Cc1ccc(OC(=O)c2ccc(Br)o2)cc1
IC50: 65.4 µM
IC90: > 100 µM

COc1ccccc1/C=C/CN1CCCC(CO)(Cc2cccc(Cl)c2)C1 (stereo not drawn)
IC50: 10.9 µM
IC90: 16.4 µM
CC50: > 40 µM

CCOC(=O)c1ccc(NC(=O)Cn2cccc2)cc1
IC90: > 100 µM

O=C(OCC#CCSc1nnc(-c2ccccc2)o1)c1ccco1
IC50: 1.16 µM
IC90: 3.94 µM

CCC(=O)OCCNc1cc(Sc2nccn2C)c2nonc2c1[N+](=O)[O-]
IC50: 20.2 µM
IC90: 27.4 µM
CC50: 18.3 µM

Cc1ccc(C(=O)Nc2nnc(-c3ccco3)o2)cc1C
IC50: < 0.195 µM
IC90: > 100 µM
CC50: > 40 µM

CCc1ccccc1NC(=O)c1ccc([N+](=O)[O-])s1
IC90: > 100 µM
CC50: > 40 µM

O=C(NC1=NCCS1)c1ccc(-c2ccc(Cl)cc2)o1
IC50: 28.4 µM
IC90: > 100 µM

O=c1c2ccccc2c(C=NC2CCN(Cc3ccccc3)CC2)c(O)n1Cc1ccc2c(c1)OCO2
IC50: 6.36 µM
IC90: 12.2 µM
CC50: > 40 µM

Cc1ccc(-c2cc(C(F)F)n3ncc(C(=O)Nc4c(C)nn(Cc5ccccc5Cl)c4C)c3n2)cc1
IC50: 2.16 µM
IC90: > 100 µM
CC50: 24.4 µM

COc1ccc(NC(C#N)c2ccc(OC)cc2)cc1 (stereo not drawn)
IC90: > 100 µM

COC(=O)CSc1nnc(-c2ccc(OC)c(OC)c2)o1
IC50: 1.43 µM
IC90: 5.53 µM

CCOCC(=O)Nc1ccc(Br)c(C)c1
IC50: 9.8 µM
IC90: > 100 µM

CCOC(=O)c1ccc(NC(=O)c2nc[nH]c2C(=O)N[C@H](C)c2ccccc2)cc1
IC50: 6.38 µM
IC90: 24.6 µM
CC50: 26 µM

CCOC(=O)c1ccc(N/C=C/C(=O)C(C)(C)C)cc1
IC50: 4.61 µM
IC90: > 100 µM

Cc1cc2ccccc2n1CCNC(=O)COc1ccc2ccccc2c1
IC50: 52.5 µM
IC90: > 100 µM

CCCCCCC(=O)Nc1nc(C)c(-c2csc(Nc3ccccc3OC)n2)s1
IC50: 5.48 µM
IC90: 9.63 µM
CC50: > 40 µM

O=C(Nc1cc(Cl)ccc1O)c1cc2n(n1)C(C(F)(F)F)CC(c1ccc3c(c1)OCO3)N2 (stereo not drawn)
CC50: > 40 µM

CCOC(=O)c1ccc(-n2c(CCC(=O)O)ccc2-c2cccs2)cc1
IC90: > 100 µM

CSc1ccc2c(c1)C(N1CCN(C)CC1)Cc1ccccc1S2 (stereo not drawn)
IC50: 8.54 µM
IC90: 10.9 µM
CC50: 20.9 µM

O=C1c2cc([N+](=O)[O-])cc3cc([N+](=O)[O-])cc(c23)C(=O)N1c1ccccn1
IC50: 2.91 µM
IC90: 3.34 µM
CC50: 35.9 µM

Cc1c2c(nc3ccccc13)CCC(C)C2 (stereo not drawn)
IC50: 16.6 µM
IC90: 40.6 µM

c1ccc2c(NC3C4CC5CC(C4)CC3C5)nc(N3CCOCC3)nc2c1 (stereo not drawn)
IC50: 1.89 µM
IC90: 3.08 µM
CC50: 27.9 µM

COC(=O)CSc1cc(SCC(=O)OC)c(C#N)c(SCC(=O)OC)c1
IC50: 0.785 µM
IC90: 2.61 µM

CC(=O)Nc1ccc(Nc2cc(C(C)C)nc3c(-c4ccccc4)c(C)nn23)cc1
IC50: 5.08 µM
IC90: 9 µM
CC50: > 40 µM

CC(=O)Nc1nc2ccccc2n1Cc1ccccc1C
IC50: 0.2 µM
IC90: 81 µM
CC50: 22.5 µM

O=C(COc1cccc(Cl)c1)Nc1ccc2c(c1)CCC2
IC50: 22.4 µM
IC90: > 100 µM

O=C(c1c[nH]c(C(=O)N2CCN(c3ccccc3F)CC2)c1)c1cccc(Cl)c1Cl
CC50: 16.9 µM

O=C(C[n+]1cc(-c2ccccc2)n2c1CCC2)Nc1nc(-c2ccc(F)cc2)cs1
IC50: 19.9 µM
IC90: 42.8 µM

COc1ccc(-c2nnc(NC(=O)C3=COCCO3)o2)cc1
IC50: 12.7 µM
IC90: 19.7 µM
CC50: > 40 µM

CC(C)CCN1C(=O)c2ccc(-c3nc4ccccc4c(=O)o3)cc2C1=O
IC50: 5.26 µM
IC90: > 100 µM

Cc1ccc(Cl)c(OC(=O)c2ccc(N3CCOCC3)c([N+](=O)[O-])c2)c1
IC50: 6.6 µM
IC90: > 100 µM

O=C(Nc1nnc(-c2ccccn2)o1)c1cccc(Br)c1
IC50: 12.4 µM
IC90: > 100 µM
CC50: > 40 µM

CCc1cc2cc(C(=O)Nc3ccc(F)cc3)sc2s1
IC50: 0.512 µM
IC90: 0.79 µM

O=C(/C=C/c1ccc(Cl)cc1Cl)N1CCN(c2ccc([N+](=O)[O-])c(N3CCOCC3)c2)CC1
CC50: > 40 µM

COc1ccc(N=C/C=C2/C=C(c3ccccc3)OC(C)(C)O2)cc1
IC50: 63.4 µM
IC90: > 100 µM

COc1cnc(-c2ccccn2)nc1Oc1ccc(F)cc1F
IC50: 19.1 µM
IC90: > 100 µM
CC50: > 40 µM

CC(C)(C)C(=O)Nc1ccc(-c2nc3ccccc3c(=O)o2)cc1
IC50: 9.98 µM
IC90: 20.2 µM

NS(=O)(=O)c1ccc(CCNc2ncnc3c2c(-c2ccccc2)cn3-c2ccc(F)cc2)cc1
IC50: 5.77 µM
IC90: 6.76 µM
CC50: > 40 µM

COc1cccc(NC(=O)c2cc(-c3ccncc3)nc3c(C)cc(C)cc23)c1
IC50: 10.9 µM
IC90: 18.5 µM
CC50: > 40 µM

Cc1cc(-c2c(C)[nH]n(-c3ccccc3)c2=O)n[nH]1
IC50: 10.5 µM
IC90: > 100 µM
CC50: 36.2 µM

N=c1c2c(-c3ccccc3)c(-c3ccccc3)n(Cc3ccco3)c2ncn1Cc1ccccc1
IC50: 2.75 µM
IC90: 3.17 µM
CC50: 6.49 µM

O=C(Nc1nc(-c2ccc(F)cc2)cs1)c1cnccn1
IC90: > 100 µM
CC50: > 40 µM

Cc1cc(C(=O)CCl)c(C)n1-c1cccc([N+](=O)[O-])c1
IC50: 8.96 µM
IC90: 15.7 µM
CC50: 20.3 µM

COc1ccc(/C=c2\s/c(=C\C(=O)C(C)(C)C)[nH]c2=O)cc1O
IC50: 5.62 µM
IC90: 7.63 µM
CC50: 25.3 µM

Cn1cnc(Sc2ncnc3nc[nH]c23)c1[N+](=O)[O-]
IC50: 8.98 µM
IC90: 16.1 µM

COc1ccc(NC(C#N)c2ccccc2OCc2ccccc2)cc1 (stereo not drawn)
IC50: 69.8 µM
IC90: > 100 µM
